Source: patent US20200129514A1, “JAK INHIBITION AS A NOVEL THERAPY FOR PREVENTING TUMORS IN PEUTZ-JEGHERS SYNDROME” (Curingenetics, LLC, priority 2018, published 2020)

Legend:
[1] = system: Lkb1FspKO/FspKO mice (PJS polyps); experiment: Ruxolitinib-containing chow treatment of Lkb1FspKO/FspKO mice, tumor burden after six weeks
Stat3 = Stat3 activation in primary epithelial crypts incubated with recombinant cytokine; format: cell-based; settings: primary epithelial crypts isolated from mouse small intestine
Experimental: (§1) IL-11 signaling is mediated via its binding to the transmembrane receptor Gp130, resulting in activation of the Jak-Stat and MAPK pathways. Of these, the induction of Jak-Stat3 activation appears most critical in GI tumorigenesis. To investigate whether IL-11 is sufficient to induce Stat3 activation in isolated wild-type epithelium, we incubated primary epithelial crypts isolated from mouse small intestine with recombinant IL-11. […] Next, we addressed whether Stat3-dependent transcriptional changes observed in polyps can be induced by IL-11 in primary epithelial organoid cultures. We focused our analysis in Reg3b, Reg3g and Lrg1 genes due to their reported expression in inflammatory epithelium in a Stat3-dependent manner and overexpression in PJS model polyps (Supplemental FIG. 6D, Supplemental Table 3).

[2] = system: Reg3b, Reg3g and Lrg1 expression; experiment: Induction of Stat3-dependent genes in primary epithelial organoid cultures; format: cell-based
Experimental: as §1

N#CC[C@H](C1CCCC1)n1cc(-c2ncnc3[nH]ccc23)cn1 [ruxolitinib, Ruxolitinib]
tumor-free mice ([1]; ruxolitinib chow 2 g/kg, 6/11 treated mice, all non-treated mice developed polyps): 55% | average polyp diameter ([1]; ruxolitinib chow, 2.51 in non-treated, p=0.082, not significant): 1.68 mm | average tumor number ([1]; ruxolitinib chow, 6.54 in non-treated): 1.27 | average tumor area ([1]; ruxolitinib chow, 47.4 in non-treated): 3.58 mm2

IL-6: IL-6 cytokine used as comparator for Stat3 activation
activation of Stat3 (Stat3): comparably

B1: IL-11: recombinant IL-11, an IL-6 family cytokine signalling via Gp130 (protein, UniProt P20809 22-199, looked up)
Interleukin-11: PGPPPGPPRVSPDPRAELDSTVLLTRSLLADTRQLAAQLRDKFPADGDHNLDSLPTLAMSAGALGALQLPGVLTRLRADLLSYLRHVQWLRRAGGSSLKTLEPELGTLQARLDRLLRRLQLLMSRLALPQPPPDPPAPPLAPPSSAWGGIRAAHAILGGLHLTLDWAVRGLLLLKTRL
activation of Stat3 (Stat3): resulted in activation of Stat3 | induction of Reg3b, Reg3g and Lrg1 expression [2]: robust induction
